Results reported in patent US20070233400A1, “Method of calculating environmental risk of a chemical” (AMSTED Industries Incorporated, priority 2006, published 2007).

Tests used:
[1] = published sources; cited from earlier work
[2] = sand
Excerpt: Mobility it defined as the ability of a chemical to migrate in the environment. Mobility of a chemical in the environment is governed by two factors that include the physical chemistry of the chemical and the physical and chemical characteristics of the geologic environment to which the chemical is released.
To obtain a value to represent the mobility of each compound, two variables are used: Henry's Law constant (H), which focuses on the physical chemistry of the chemical and the retardation factor (R), which focuses on the physical and chemical characteristics of the geological environment. The retardation factor was calculated by first calculating the distribution coefficient using Equation 1. Kd=(Foc)(Koc) where: Kd=distribution coefficient (mL·g^−1); Koc=organic carbon partition coefficient (1/mg); Foc=fraction of organic carbon in soil (mg/mg)
Values for the organic carbon partition coefficient can be obtained from location-specific testing of soil or from various published sources. And the fraction of organic carbon in soil can be obtained from location-specific testing of soil or from various published sources.
Once the distribution coefficient is calculated, the Retardation Factor can be calculated using Equation 2. [formula] where: R is the retardation factor; ρb=bulk density of aquifer matrix (g/cm^3); Kd=distribution coefficient (mL·g^−1); η=effective porosity Henry's Law constant (H) (atm.·mol^−1·m^−3) is a measure of the tendency for organic solutes to volatilize. It is related to vapor pressure (VP) (atm.), molecular weight (MW) (g/mol); and solubility in water (Ws) (g/L) according to Equation (3): H=(VP)/(MW)(Ws) With Henry's Law constant and the retardation factor in place, the mobility of a specific compound is expressed as Equation (4): M=(H)(R) where: M=mobility; H=Henry's Law constant; R=retardation factor

[3] = oral pathway; more conservative of carcinogenic or chronic value; published sources; cited from earlier work

For `c1ccccc1` [benzene], the “Henry's Law constant (H)” value [1] is listed as 0.228 atm.·mol^−1·m^−3, the “mobility factor (M)” value ([2]; M=(H)(R)) is listed as 0.2576 and the “distribution coefficient (Kd)” value ([2]; Foc 0.0003 mg/mg, Kd=Foc×Koc) is listed as 0.0177 mL/g. For the same compound, the “retardation factor (R)” value ([2]; bulk density 1.8 g/cm^3, effective porosity 0.25) was 1.13 and the “toxicity value (T)” value [3] was 0.04 mg/kg-day^−1.
